Experimental data from ChEMBL document CHEMBL1201862, “PubChem BioAssay data set” (2004).
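Briefly, cells in 96-well plates were exposed to five compound concentrations for 48 h, and endpoints were estimated by linear interpolation. Here, GI50 denotes the concentration required for 50% inhibition of growth.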 Calls of active or inactive are those of the source. Cut-off read from the data, not from the text of the source: active = GI50 up to about 1.1 µM and inactive = higher.

Legend:
Assay in all cases: NCI-60 cell line screen, 48 h
NCI-H522 = tested on: NCI-H522
SF-268 = tested on: SF-268
A498 = tested on: A498
HL-60 = tested on: HL-60
RXF 631 = tested on: RXF 631
K562 = tested on: K562
NCI-H226 = tested on: NCI-H226
HCC 2998 = tested on: HCC 2998
KM12 = tested on: KM12
SNB-75 = tested on: SNB-75
A549 = tested on: A549
NCI-H23 = tested on: NCI-H23
SK-MEL-5 = tested on: SK-MEL-5
LOX IMVI = tested on: LOX IMVI
SN12C = tested on: SN12C
SK-OV-3 = tested on: SK-OV-3
SK-MEL-28 = tested on: SK-MEL-28
786-0 = tested on: 786-0
OVCAR-8 = tested on: OVCAR-8
M14 = tested on: M14
HOP-92 = tested on: HOP-92
HCT-15 = tested on: HCT-15
SF-295 = tested on: SF-295
EKVX = tested on: EKVX
TK-10 = tested on: TK-10
DLD-1 = tested on: DLD-1
DMS-273 = tested on: DMS-273
UACC-62 = tested on: UACC-62
RPMI-8226 = tested on: RPMI-8226
SW-620 = tested on: SW-620
SF-539 = tested on: SF-539
SNB-19 = tested on: SNB-19
KM-20L2 = tested on: KM-20L2
XF498 = tested on: XF498
SR = tested on: SR
NCI-H460 = tested on: NCI-H460
UACC-257 = tested on: UACC-257
CAKI-1 = tested on: CAKI-1
HCT-116 = tested on: HCT-116
OVCAR-5 = tested on: OVCAR-5
OVCAR-3 = tested on: OVCAR-3
IGROV-1 = tested on: IGROV-1
M19-MEL = tested on: M19-MEL
SNB-78 = tested on: SNB-78
HOP-18 = tested on: HOP-18
RXF 393 = tested on: RXF 393
SK-MEL-2 = tested on: SK-MEL-2
HT-29 = tested on: HT-29
COLO 205 = tested on: COLO 205
Malme-3M = tested on: Malme-3M
U-251 = tested on: U-251
ACHN = tested on: ACHN
HOP-62 = tested on: HOP-62
LXFL 529 = tested on: LXFL 529
CCRF-CEM = tested on: CCRF-CEM
DMS-114 = tested on: DMS-114
UO-31 = tested on: UO-31
MOLT-4 = tested on: MOLT-4
OVCAR-4 = tested on: OVCAR-4

CC[As](CC)SCC1OC(OC(C)=O)C(OC(C)=O)C(OC(C)=O)C1OC(C)=O (stereo not drawn)
GI50 (NCI-H522): 1.75 µM (inactive) | GI50 (SF-268): 11.6 µM (inactive) | GI50 (A498): 20.6 µM (inactive) | GI50 (HL-60): 3.16 µM (inactive) | GI50 (RXF 631): 2.67 µM (inactive) | GI50 (K562): 4.38 µM (inactive) | GI50 (NCI-H226): 14.3 µM (inactive) | GI50 (HCC 2998): 17.5 µM (inactive) | GI50 (KM12): 19.5 µM (inactive) | GI50 (SNB-75): 25.5 µM (inactive) | GI50 (A549): 21 µM (inactive) | GI50 (NCI-H23): 13.5 µM (inactive) | GI50 (SK-MEL-5): 15.1 µM (inactive) | GI50 (LOX IMVI): 15.2 µM (inactive) | GI50 (SN12C): 14.4 µM (inactive) | GI50 (SK-OV-3): 15.8 µM (inactive) | GI50 (SK-MEL-28): 4.01 µM (inactive) | GI50 (786-0): 14.4 µM (inactive) | GI50 (OVCAR-8): 16 µM (inactive) | GI50 (M14): 12.3 µM (inactive) | GI50 (HOP-92): 3.15 µM (inactive) | GI50 (HCT-15): 13.6 µM | GI50 (SF-295): 18.9 µM (inactive) | GI50 (EKVX): 21.4 µM (inactive) | GI50 (TK-10): 16.6 µM (inactive) | GI50 (DLD-1): 16.1 µM (inactive) | GI50 (DMS-273): 15.6 µM (inactive) | GI50 (UACC-62): 13.9 µM (inactive) | GI50 (RPMI-8226): 6.58 µM (inactive) | GI50 (SW-620): 4.74 µM (inactive) | GI50 (SF-539): 13.1 µM (inactive) | GI50 (SNB-19): 17.9 µM (inactive) | GI50 (KM-20L2): 18.7 µM (inactive) | GI50 (XF498): 17.7 µM (inactive) | GI50 (SR): 12 µM (inactive) | GI50 (NCI-H460): 16.8 µM (inactive) | GI50 (UACC-257): 14.2 µM (inactive) | GI50 (CAKI-1): 2.84 µM (inactive) | GI50 (HCT-116): 17.1 µM (inactive) | GI50 (OVCAR-5): 18.3 µM (inactive) | GI50 (OVCAR-3): 14.4 µM (inactive) | GI50 (IGROV-1): 18.3 µM (inactive) | GI50 (M19-MEL): 11.8 µM (inactive) | GI50 (SNB-78): 10.4 µM (inactive) | GI50 (HOP-18): 16.1 µM (inactive) | GI50 (RXF 393): 3.26 µM (inactive) | GI50 (SK-MEL-2): 12.6 µM (inactive) | GI50 (HT-29): 21.5 µM (inactive) | GI50 (COLO 205): 2.42 µM (inactive) | GI50 (Malme-3M): 3.53 µM (inactive) | GI50 (U-251): 12.8 µM (inactive) | GI50 (ACHN): 17.4 µM (inactive) | GI50 (HOP-62): 20.8 µM (inactive) | GI50 (LXFL 529): 1.92 µM (inactive) | GI50 (CCRF-CEM): 3.05 µM (inactive) | GI50 (DMS-114): 4.81 µM (inactive) | GI50 (UO-31): 16.2 µM (inactive) | GI50 (MOLT-4): 16.5 µM (inactive) | GI50 (OVCAR-4): 21.9 µM (inactive)

COc1ccc(-c2cc(N3CCN(c4ccccc4)CC3)c(C#N)c(=O)o2)cc1
GI50 (SF-268): 8.55 µM (inactive) | GI50 (A498): 26.9 µM (inactive) | GI50 (HL-60): 60.7 µM (inactive) | GI50 (RXF 631): 21.5 µM (inactive) | GI50 (K562): 61 µM (inactive) | GI50 (NCI-H226): 7.74 µM (inactive) | GI50 (HCC 2998): 65.6 µM (inactive) | GI50 (KM12): > 100 µM (inactive) | GI50 (SNB-75): 7.41 µM (inactive) | GI50 (A549): 21.2 µM (inactive) | GI50 (NCI-H23): 47.6 µM (inactive) | GI50 (SK-MEL-5): 36.4 µM (inactive) | GI50 (LOX IMVI): 30.5 µM (inactive) | GI50 (SN12C): 30.2 µM (inactive) | GI50 (SK-MEL-28): 15.6 µM (inactive) | GI50 (OVCAR-8): 20.7 µM (inactive) | GI50 (M14): > 100 µM (inactive) | GI50 (HOP-92): 55 µM (inactive) | GI50 (HCT-15): 65.2 µM | GI50 (SF-295): 14.3 µM (inactive) | GI50 (EKVX): 23.8 µM (inactive) | GI50 (TK-10): 22.4 µM (inactive) | GI50 (DLD-1): 57 µM (inactive) | GI50 (DMS-273): 40 µM (inactive) | GI50 (RPMI-8226): 62.5 µM (inactive) | GI50 (SW-620): 42 µM (inactive) | GI50 (SF-539): 11.3 µM (inactive) | GI50 (SNB-19): 8.49 µM (inactive) | GI50 (KM-20L2): > 100 µM (inactive) | GI50 (XF498): 6.59 µM (inactive) | GI50 (SR): > 100 µM (inactive) | GI50 (NCI-H460): 26.5 µM (inactive) | GI50 (UACC-257): 50.1 µM (inactive) | GI50 (CAKI-1): 16.7 µM (inactive) | GI50 (HCT-116): 62.8 µM (inactive) | GI50 (OVCAR-5): > 100 µM (inactive) | GI50 (IGROV-1): 24.8 µM (inactive) | GI50 (SNB-78): 22.6 µM (inactive) | GI50 (HOP-18): 4.88 µM (inactive) | GI50 (RXF 393): 13.7 µM (inactive) | GI50 (SK-MEL-2): 18.8 µM (inactive) | GI50 (HT-29): > 100 µM (inactive) | GI50 (COLO 205): > 100 µM (inactive) | GI50 (Malme-3M): 19.4 µM (inactive) | GI50 (U-251): 37.6 µM (inactive) | GI50 (ACHN): 28.6 µM (inactive) | GI50 (LXFL 529): 27.3 µM (inactive) | GI50 (CCRF-CEM): 98.4 µM (inactive) | GI50 (DMS-114): 22.1 µM (inactive) | GI50 (UO-31): 13.2 µM (inactive) | GI50 (MOLT-4): > 100 µM (inactive) | GI50 (OVCAR-4): 4.59 µM (inactive)

O=S(=O)(/C=C/CS(=O)(=O)c1ccccc1)c1ccccc1
GI50 (SF-268): 26.9 µM (inactive) | GI50 (A498): 27.5 µM (inactive) | GI50 (HL-60): 15.1 µM (inactive) | GI50 (RXF 631): 24.7 µM (inactive) | GI50 (K562): 25.3 µM (inactive) | GI50 (NCI-H226): 19.3 µM (inactive) | GI50 (HCC 2998): 23.9 µM (inactive) | GI50 (KM12): 13.8 µM (inactive) | GI50 (SNB-75): 36.1 µM (inactive) | GI50 (A549): 22.4 µM (inactive) | GI50 (NCI-H23): 19.2 µM (inactive) | GI50 (SK-MEL-5): 40.8 µM (inactive) | GI50 (LOX IMVI): 17.3 µM (inactive) | GI50 (SN12C): 25.3 µM (inactive) | GI50 (SK-OV-3): 29.3 µM (inactive) | GI50 (SK-MEL-28): 31.8 µM (inactive) | GI50 (786-0): 24.3 µM (inactive) | GI50 (OVCAR-8): 16.9 µM (inactive) | GI50 (M14): 23 µM (inactive) | GI50 (HOP-92): 45 µM (inactive) | GI50 (HCT-15): 17.5 µM | GI50 (SF-295): 27.9 µM (inactive) | GI50 (EKVX): 41.6 µM (inactive) | GI50 (TK-10): 43.7 µM (inactive) | GI50 (DLD-1): 23.6 µM (inactive) | GI50 (DMS-273): 29.8 µM (inactive) | GI50 (UACC-62): 21.5 µM (inactive) | GI50 (RPMI-8226): 18.8 µM (inactive) | GI50 (SW-620): 20.9 µM (inactive) | GI50 (SF-539): 20.3 µM (inactive) | GI50 (SNB-19): 34.7 µM (inactive) | GI50 (KM-20L2): 29.2 µM (inactive) | GI50 (XF498): 20.7 µM (inactive) | GI50 (SR): 1.66 µM (inactive) | GI50 (NCI-H460): 21.9 µM (inactive) | GI50 (UACC-257): 24.2 µM (inactive) | GI50 (HCT-116): 19.1 µM (inactive) | GI50 (OVCAR-5): 47.1 µM (inactive) | GI50 (OVCAR-3): 26.5 µM (inactive) | GI50 (IGROV-1): 39.8 µM (inactive) | GI50 (M19-MEL): 36.1 µM (inactive) | GI50 (SNB-78): 26.7 µM (inactive) | GI50 (HOP-18): > 100 µM (inactive) | GI50 (RXF 393): 26.9 µM (inactive) | GI50 (SK-MEL-2): 6.47 µM (inactive) | GI50 (HT-29): 37.8 µM (inactive) | GI50 (COLO 205): 36.1 µM (inactive) | GI50 (Malme-3M): 29.6 µM (inactive) | GI50 (U-251): 25.8 µM (inactive) | GI50 (ACHN): 53.3 µM (inactive) | GI50 (HOP-62): 24.9 µM (inactive) | GI50 (LXFL 529): 29.1 µM (inactive) | GI50 (CCRF-CEM): 36.1 µM (inactive) | GI50 (DMS-114): 23.4 µM (inactive) | GI50 (UO-31): 42.5 µM (inactive) | GI50 (MOLT-4): 21.2 µM (inactive) | GI50 (OVCAR-4): 35.6 µM (inactive)
